According to US11161846B2, “Substituted pyrazolo[4,3-b]pyridines and their use as GluN2B receptor modulators” (JANSSEN PHARMACEUTICA NV, priority 2019, dated 2021):

Target: T1, human GluN1/GluN2B NMDA receptors (Homo sapiens, UniProt Q05586+Q13224)
T1 construct: expressed in transfected cells
Experiment: Calcium flux (FLIPR) assay on cloned human NR1/GluN2B ion channels expressed in mammalian cells, standard assay
Assay type: cell-based
Conditions: glutamate ~EC40 and 10 μM glycine, stable cell line with Tet-On induced expression
Summary of the method: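 Tet-On-induced stable mammalian line loaded with Calcium 5 dye (0.5 mM MgCl2 loading buffer), then assayed in pH 7.4 buffer with 137 mM NaCl, 4 mM KCl, 2 mM CaCl2. Compound was added for 5 min, then glutamate (~EC40) plus 10 µM glycine for 5 min. FLIPR fluorescence was normalized to control wells.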

T1 sequence (Q13224 27-1484, other chains not shown): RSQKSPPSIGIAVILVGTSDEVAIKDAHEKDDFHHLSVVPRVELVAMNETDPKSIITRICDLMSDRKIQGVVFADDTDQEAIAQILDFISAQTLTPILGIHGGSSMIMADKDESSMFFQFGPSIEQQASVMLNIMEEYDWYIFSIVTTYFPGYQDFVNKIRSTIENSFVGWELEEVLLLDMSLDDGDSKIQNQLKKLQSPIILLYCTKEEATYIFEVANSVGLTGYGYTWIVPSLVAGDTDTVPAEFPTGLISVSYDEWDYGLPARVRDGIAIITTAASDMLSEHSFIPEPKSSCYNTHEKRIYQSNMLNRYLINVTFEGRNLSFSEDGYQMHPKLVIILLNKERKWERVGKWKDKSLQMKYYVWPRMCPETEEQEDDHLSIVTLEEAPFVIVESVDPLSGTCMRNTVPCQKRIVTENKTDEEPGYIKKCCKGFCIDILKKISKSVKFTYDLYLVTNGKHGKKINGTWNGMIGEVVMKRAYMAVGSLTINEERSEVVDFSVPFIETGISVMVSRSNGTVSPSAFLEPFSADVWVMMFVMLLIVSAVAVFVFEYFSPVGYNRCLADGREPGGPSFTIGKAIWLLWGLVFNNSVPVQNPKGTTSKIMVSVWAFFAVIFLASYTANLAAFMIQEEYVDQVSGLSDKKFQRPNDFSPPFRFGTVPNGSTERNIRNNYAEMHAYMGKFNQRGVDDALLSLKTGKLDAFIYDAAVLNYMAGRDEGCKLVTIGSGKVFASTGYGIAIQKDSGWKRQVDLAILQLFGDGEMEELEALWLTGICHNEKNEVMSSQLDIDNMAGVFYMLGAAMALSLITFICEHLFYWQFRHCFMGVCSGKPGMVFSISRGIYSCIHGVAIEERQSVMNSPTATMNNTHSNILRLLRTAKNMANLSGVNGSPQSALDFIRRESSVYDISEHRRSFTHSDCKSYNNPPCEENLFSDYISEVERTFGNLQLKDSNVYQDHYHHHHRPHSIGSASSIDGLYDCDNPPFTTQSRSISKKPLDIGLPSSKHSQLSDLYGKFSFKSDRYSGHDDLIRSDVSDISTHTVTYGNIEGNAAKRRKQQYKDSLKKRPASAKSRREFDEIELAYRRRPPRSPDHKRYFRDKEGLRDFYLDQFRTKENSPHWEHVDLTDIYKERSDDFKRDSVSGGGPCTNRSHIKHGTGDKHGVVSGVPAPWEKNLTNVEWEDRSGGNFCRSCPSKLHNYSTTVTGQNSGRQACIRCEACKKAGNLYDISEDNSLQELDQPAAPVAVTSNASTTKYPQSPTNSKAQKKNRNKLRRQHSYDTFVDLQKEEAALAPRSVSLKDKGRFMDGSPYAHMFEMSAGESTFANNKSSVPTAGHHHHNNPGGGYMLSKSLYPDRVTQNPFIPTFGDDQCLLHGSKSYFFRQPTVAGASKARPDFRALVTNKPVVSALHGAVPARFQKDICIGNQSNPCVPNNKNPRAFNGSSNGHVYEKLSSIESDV

Row | IC50 [nM] | SMILES
1 | 109 | CC[S+]([O-])Cn1ncc2ncc(-c3ccc(Cl)c(OC(F)F)c3)cc21 (racemic) [Example 87, (RS)-6-[4-Chloro-3-(difluoromethoxy)phenyl]-1-(ethylsulfinylmethyl)pyrazolo[4,3-b]pyridine]
2 | 31 | O=C(Cn1ncc2ncc(-c3cccc(OC(F)(F)F)c3)cc21)C1CC1 [Example 63, 1-Cyclopropyl-2-[6-[3-(trifluoromethoxy)phenyl]pyrazolo[4,3-b]pyridin-1-yl]ethanone]
3 | 11 | CCC(=O)Cn1ncc2ncc(-c3ccc(F)c(OC(F)F)c3)cc21 [Example 40, 1-[6-[3-(Difluoromethoxy)-4-fluoro-phenyl]pyrazolo[4,3-b]pyridin-1-yl]butan-2-one]
4 | 296 | CC(C)C(=O)Cn1ncc2ncc(-c3ccc(F)c(C(F)(F)F)c3)cc21 [Example 51, 1-[6-[4-Fluoro-3-(trifluoromethyl)phenyl]pyrazolo[4,3-b]pyridin-1-yl]-3-methyl-butan-2-one]
5 | 1430 | CCN1C[C@@H](Cn2ncc3ncc(-c4ccc(F)c(C(F)F)c4)cc32)OC1=O [Example 132, (S)-5-[[6-[3-(Difluoromethyl)-4-fluoro-phenyl]pyrazolo[4,3-b]pyridin-1-yl]methyl]-3-ethyl-oxazolidin-2-one]
6 | 30 | CC(C)C(=O)Cn1ncc2ncc(-c3cccc(F)c3)cc21 [Example 46, 1-[6-(3-Fluorophenyl)pyrazolo[4,3-b]pyridin-1-yl]-3-methyl-butan-2-one]
7 | 997 | O=C1O[C@@H](Cn2ncc3ncc(-c4ccc(F)c(C(F)F)c4)cc32)CN1C1CC1 [Example 136, (R)-3-Cyclopropyl-5-[[6-[3-(difluoromethyl)-4-fluoro-phenyl]pyrazolo[4,3-b]pyridin-1-yl]methyl]oxazolidin-2-one]
8 | > 3000 | O=C1O[C@H](Cn2ncc3ncc(-c4ccc(F)c(C(F)F)c4)cc32)CN1C1CC1 [Example 135, (S)-3-Cyclopropyl-5-[[6-[3-(difluoromethyl)-4-fluoro-phenyl]pyrazolo[4,3-b]pyridin-1-yl]methyl]oxazolidin-2-one]
9 | 30 | O=C(Cn1ncc2ncc(-c3cc(F)c(F)c(F)c3)cc21)C1CC1 [Example 9, 1-Cyclopropyl-2-[6-(3,4,5-trifluorophenyl)pyrazolo[4,3-b]pyridin-1-yl]ethanone]
10 | 36 | CC(=O)Cn1ncc2ncc(-c3ccc(Cl)c(OC(F)F)c3)cc21 [Example 26, 1-[6-[4-Chloro-3-(difluoromethoxy)phenyl]pyrazolo[4,3-b]pyridin-1-yl]propan-2-one]
11 | 65 | ON=C(Cn1ncc2ncc(-c3ccc(F)c(C(F)F)c3)cc21)C1CC1 (mixture of isomers) [Example 107, (E/Z)-1-Cyclopropyl-2-[6-[3-(difluoromethyl)-4-fluoro-phenyl]pyrazolo[4,3-b]pyridin-1-yl]ethanone oxime]
12 | 7 | O=C(Cn1ncc2ncc(-c3ccc(F)c(Cl)c3)cc21)C1CC1 [Example 68, 2-[6-[3-Chloro-4-fluoro-phenyl)pyrazolo[4,3-b]pyridin-1-yl]-1-cyclopropyl-ethanone]
13 | 167 | Cc1cc(-c2cnc3cnn(CC(O)C4CC4)c3c2)ccc1F (racemic) [Example 101, (RS)-1-Cyclopropyl-2-[6-(4-fluoro-3-methyl-phenyl)pyrazolo[4,3-b]pyridin-1-yl]ethanol]
14 | 187 | O=C1NC[C@H](Cn2ncc3ncc(-c4ccc(F)c(C(F)F)c4)cc32)O1 [Example 22, (R)-5-[[6-[3-(Difluoromethyl)-4-fluoro-phenyl]pyrazolo[4,3-b]pyridin-1-yl]methyl]oxazolidin-2-one]
15 | 46 | O=C(Cn1ncc2ncc(-c3cccc(C(F)(F)F)c3)cc21)C1CC1 [Example 62, 1-Cyclopropyl-2-[6-[3-(trifluoromethyl)phenyl]pyrazolo[4,3-b]pyridin-1-yl]ethanone]
16 | 5 | CCC(=O)Cn1nc(F)c2ncc(-c3ccc(F)c(F)c3)cc21 [Example 35, 1-[6-(3,4-Difluorophenyl)-3-fluoro-pyrazolo[4,3-b]pyridin-1-yl]butan-2-one]
17 | 41 | CC(C)C(=O)Cn1ncc2ncc(-c3cc(F)c(F)c(F)c3)cc21 [Example 53, 3-Methyl-1-[6-(3,4,5-trifluorophenyl)pyrazolo[4,3-b]pyridin-1-yl]butan-2-one]
18 | 21 | Cc1cc(-c2cnc3cnn(CC(=O)C(C)C)c3c2)ccc1F [Example 7, 1-[6-(4-Fluoro-3-methyl-phenyl)pyrazolo[4,3-b]pyridin-1-yl]-3-methyl-butan-2-one]
19 | 2480 | CC(C)C(Cn1ncc2ncc(-c3cccc(C(F)(F)F)c3)cc21)=NO (mixture of isomers) [Example 6, (E/Z)-3-Methyl-1-[6-[3-(trifluoromethyl)phenyl]pyrazolo[4,3-b]pyridin-1-yl]butan-2-one oxime]
20 | 973 | CC(F)(F)c1cc(-c2cnc3cnn(CC4CNC(=O)O4)c3c2)ccc1F (racemic) [Example 127, (RS)-5-[[6-[3-(1,1-Difluoroethyl)-4-fluoro-phenyl]pyrazolo[4,3-b]pyridin-1-yl]methyl]oxazolidin-2-one]
21 | 45 | Fc1ccc(-c2cnc3cnn(CC(F)(F)C4CC4)c3c2)cc1C(F)F [Example 108, 1-(2-Cyclopropyl-2,2-difluoro-ethyl)-6-[3-(difluoromethyl)-4-fluoro-phenyl]pyrazolo[4,3-b]pyridine]
22 | 498 | O=C1NCC(Cn2ncc3ncc(-c4ccc(F)c(OC(F)F)c4)cc32)O1 (racemic) [Example 125, (RS)-5-[[6-[3-(Difluoromethoxy)-4-fluoro-phenyl]pyrazolo[4,3-b]pyridin-1-yl]methyl]oxazolidin-2-one]
23 | 32 | CCC(=O)Cn1ncc2ncc(-c3ccc(F)cc3)cc21 [Example 28, 1-[6-(4-Fluorophenyl)pyrazolo[4,3-b]pyridin-1-yl]butan-2-one]
24 | 526 | CCC(O)Cn1ncc2ncc(-c3ccc(F)c(F)c3)cc21 (racemic) [Example 91, (RS)-1-[6-(3,4-Difluorophenyl)pyrazolo[4,3-b]pyridin-1-yl]butan-2-ol]
25 | 14 | CC(=O)Cn1ncc2ncc(-c3ccc(F)c(C(F)F)c3)cc21 [Example 23, 1-[6-[3-(Difluoromethyl)-4-fluoro-phenyl]pyrazolo[4,3-b]pyridin-1-yl]propan-2-one]
26 | 696 | OC(Cn1ncc2ncc(-c3cc(F)c(F)c(F)c3)cc21)C1CC1 (racemic) [Example 10, (R/S)-1-Cyclopropyl-2-[6-(3,4,5-trifluorophenyl)pyrazolo[4,3-b]pyridin-1-yl]ethanol]
27 | 272 | CCC(O)Cn1ncc2ncc(-c3cccc(C(C)(F)F)c3)cc21 (racemic) [Example 95, (RS)-1-[6-[3-(1,1-Difluoroethyl)phenyl]pyrazolo[4,3-b]pyridin-1-yl]butan-2-ol]
28 | 63 | Cc1cc(-c2cnc3cnn(CC(=O)C4CCC4)c3c2)ccc1F [Example 70, 1-Cyclobutyl-2-[6-(4-fluoro-3-methyl-phenyl)pyrazolo[4,3-b]pyridin-1-yl]ethanone]
